The text below walks through data of patent US9567318B2, “Substituted pyrimidine compounds and uses thereof” (Memorial Sloan-Kettering Cancer Center, priority 2009, dated 2017).

Each structure is given as a SMILES string.

One series deals with HSF-1 in SKBr3 cells. Briefly: Native gel electrophoresis, HSF-1 activation. The series is classed as cell-based, human. To be noted: 3 h. The method, then:
FIG. 6. YK5 inhibits core biochemical functions of Hsp70s and disrupts the Hsp90/Hsp70 interaction. a) Refolding of denatured luciferase by Hsc70 and DJA2 at 30° C. was measured for the indicated times in the presence of YK5 (100 μM) or vehicle (left), or at 60 min in the presence of indicated concentrations of YK5 (right). b) Hsc70 ATPase rates were measured for reactions at 30° C. with the indicated combinations of Hsc70 and co-chaperones in the presence of vehicle (DMSO) or YK5 (100 μM). ADP production was monitored by thin layer chromatography separation of radiolabeled ADP from ATP and phosphorimaging analysis (lower). The data are consistent with those obtained from multiple repeat experiments (n≧2). c,d) SKBr3 cells were treated for 24 h with vehicle or indicated concentrations of YK5 (c) or for the indicated times with YK5 (10 μM) (d). Proteins isolated with anti-Hsp90 and Hsp70s antibodies (IP: Hsp90 or Hsp70), or present in the cell extract (Lysate) were analyzed by WB. Specificity of binding was tested with a control IgG. HC=heavy chain; DJA1 and Hdj1=Hsp40 isoforms. e) Unlike Hsp90 inhibitors, YK5 fails to activate HSF-1. […] Proteins were applied to a native gel and analyzed by immunoblotting. The data are consistent with those obtained from multiple repeat experiments (n≧3). f) YK5 was tested in the scanMAX screen (Ambit) against 359 kinases. […]

In series [1] the test system is PBLs, CCD18Co and MRC-5 normal cells. Briefly: Cytotoxicity in normal cells. The series is classed as cell-based. As to the method: FIG. 14. YK5 has a higher affinity for tumor Hsp70s and selectively kills cancer cells. (a-c) Cells were treated with the indicated concentrations of inhibitors for the times presented, and metabolically viable cells by Alamar blue uptake as described in Methods (a). Molecular markers of apoptosis (PARP and caspase-3 cleavage) were analyzed in cells treated for 24 h with indicated concentrations of inhibitors, by western blotting (b, c). Morphology of cells treated for 24 h with vehicle or the indicated inhibitors was analyzed by light microscopy (c). […]
Because Hsp70 assists in house-keeping functions of normal cells, such as folding of newly synthesized polypeptides, refolding of misfolded proteins, and translocation of proteins through biological membranes, it remains unclear whether pharmacologic interventions which target both Hsp70 and Hsc70 isoforms, such as YK5, are non-toxic to these cells. To address this matter, the cytotoxic effect of YK5 in a panel of normal cells was evaluated, namely peripheral blood leukocytes (PBLs) obtained from healthy blood donors, and cultured normal fibroblasts, such as the colon cells CCD18Co and the lung MRC-5 (FIG. 14a-c). […]
Growth Inhibition Assay. Antiproliferative effects of inhibitors were evaluated using the dye Alamar blue. […]

Take `C=CC(=O)Nc1cc(N)nc(Sc2c(OC)nc(N3CCN(C)CC3)nc2OC)n1` [YK5, N-(6-amino-2-(4,6-dimethoxy-2-(4-methylpiperazin-1-yl)pyrimidin-5-ylthio)pyrimidin-4-yl)acrylamide]: in the series on HSF-1 in SKBr3 cells, the HSF-1 activation result is on record as “no effect”. The “cell death in normal cells” value in series [1] is “minimal”.
